# Assay results reported in the supplement of paper PMC4862054.
# Test system: CAL-120
# Assay: normalised response (% of control), CellTiter-Glo; higher = more viable cells (100 = DMSO, 0 = benzethonium chloride kill control)
# Conditions: incubation time: 72 h
# Description: (§1)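 DSRT, 72 h incubation, CellTox Green / CellTiter-Glo readout. Signal is normalised to DMSO and benzethonium chloride controls. Value is the normalised response at dose 3.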
row,SMILES,normalised response
1,O=C(c1ccc(C(=O)N2CCC(N3CCCC3)CC2)c(Nc2ccccc2)c1)N1CCC(N2CCCC2)CC1 [UNC1215] (300 nM),96.7%
2,CN1CC[C@H](c2c(O)cc(O)c3c(=O)cc(-c4ccccc4Cl)oc23)[C@H](O)C1 [Alvocidib] (100 nM),86.2%
3,OC[C@H]1O[C@@H](n2cnc3c2N=CNC[C@H]3O)C[C@@H]1O [Pentostatin] (100 nM),103%
4,Nc1nc(Cl)nc2c1ncn2[C@H]1C[C@H](O)[C@@H](CO)O1 [Cladribine] (10 nM),102%
5,COc1cccc2c1C(=O)c1c(O)c3c(c(O)c1C2=O)C[C@@](O)(C(=O)CO)C[C@@H]3O[C@H]1C[C@H](N)[C@H](O)[C@H](C)O1 [Doxorubicin] (10 nM),98.1%
6,CC(=O)O[C@]1(C(C)=O)CC[C@H]2[C@@H]3C=C(C)C4=CC(=O)CC[C@]4(C)[C@H]3CC[C@@]21C [Megestrol acetate] (100 nM),96.5%
7,CN(C)C/C=C/C(=O)Nc1cc2c(Nc3ccc(F)c(Cl)c3)ncnc2cc1O[C@H]1CCOC1 [Afatinib] (10 nM),94%
8,COc1cccc2cc(-c3nc([C@H]4CC[C@H](C(=O)O)CC4)n4ncnc(N)c34)[nH]c12 [OSI-027] (100 nM),92.9%
9,N#CC[C@H](C1CCCC1)n1cc(-c2ncnc3[nH]ccc23)cn1 [Ruxolitinib] (100 nM),96.3%

# Test system: MDA-MB-231
# Assay: as above
# Conditions: incubation time: 72 h
# Description: as §1
row,SMILES,normalised response
1,O=C(c1ccc(C(=O)N2CCC(N3CCCC3)CC2)c(Nc2ccccc2)c1)N1CCC(N2CCCC2)CC1 [UNC1215] (300 nM),99.1%
2,CN1CC[C@H](c2c(O)cc(O)c3c(=O)cc(-c4ccccc4Cl)oc23)[C@H](O)C1 [Alvocidib] (100 nM),90.8%
3,OC[C@H]1O[C@@H](n2cnc3c2N=CNC[C@H]3O)C[C@@H]1O [Pentostatin] (100 nM),106%
4,Nc1nc(Cl)nc2c1ncn2[C@H]1C[C@H](O)[C@@H](CO)O1 [Cladribine] (10 nM),100%
5,COc1cccc2c1C(=O)c1c(O)c3c(c(O)c1C2=O)C[C@@](O)(C(=O)CO)C[C@@H]3O[C@H]1C[C@H](N)[C@H](O)[C@H](C)O1 [Doxorubicin] (10 nM),104%
6,CC(=O)O[C@]1(C(C)=O)CC[C@H]2[C@@H]3C=C(C)C4=CC(=O)CC[C@]4(C)[C@H]3CC[C@@]21C [Megestrol acetate] (100 nM),111%
7,CN(C)C/C=C/C(=O)Nc1cc2c(Nc3ccc(F)c(Cl)c3)ncnc2cc1O[C@H]1CCOC1 [Afatinib] (10 nM),99.3%
8,COc1cccc2cc(-c3nc([C@H]4CC[C@H](C(=O)O)CC4)n4ncnc(N)c34)[nH]c12 [OSI-027] (100 nM),95.3%
9,N#CC[C@H](C1CCCC1)n1cc(-c2ncnc3[nH]ccc23)cn1 [Ruxolitinib] (100 nM),97.9%

# Test system: HCC1599
# Assay: as above
# Conditions: incubation time: 72 h
# Description: as §1
row,SMILES,normalised response
1,O=C(c1ccc(C(=O)N2CCC(N3CCCC3)CC2)c(Nc2ccccc2)c1)N1CCC(N2CCCC2)CC1 [UNC1215] (300 nM),93.2%
2,CN1CC[C@H](c2c(O)cc(O)c3c(=O)cc(-c4ccccc4Cl)oc23)[C@H](O)C1 [Alvocidib] (100 nM),108%
3,OC[C@H]1O[C@@H](n2cnc3c2N=CNC[C@H]3O)C[C@@H]1O [Pentostatin] (100 nM),107%
4,Nc1nc(Cl)nc2c1ncn2[C@H]1C[C@H](O)[C@@H](CO)O1 [Cladribine] (10 nM),106%
5,COc1cccc2c1C(=O)c1c(O)c3c(c(O)c1C2=O)C[C@@](O)(C(=O)CO)C[C@@H]3O[C@H]1C[C@H](N)[C@H](O)[C@H](C)O1 [Doxorubicin] (10 nM),98.8%
6,CC(=O)O[C@]1(C(C)=O)CC[C@H]2[C@@H]3C=C(C)C4=CC(=O)CC[C@]4(C)[C@H]3CC[C@@]21C [Megestrol acetate] (100 nM),102%
7,CN(C)C/C=C/C(=O)Nc1cc2c(Nc3ccc(F)c(Cl)c3)ncnc2cc1O[C@H]1CCOC1 [Afatinib] (10 nM),118%
8,COc1cccc2cc(-c3nc([C@H]4CC[C@H](C(=O)O)CC4)n4ncnc(N)c34)[nH]c12 [OSI-027] (100 nM),114%
9,N#CC[C@H](C1CCCC1)n1cc(-c2ncnc3[nH]ccc23)cn1 [Ruxolitinib] (100 nM),94%

# Test system: CAL-148
# Assay: as above
# Conditions: incubation time: 72 h
# Description: as §1
row,SMILES,normalised response
1,O=C(c1ccc(C(=O)N2CCC(N3CCCC3)CC2)c(Nc2ccccc2)c1)N1CCC(N2CCCC2)CC1 [UNC1215] (300 nM),93.6%
2,CN1CC[C@H](c2c(O)cc(O)c3c(=O)cc(-c4ccccc4Cl)oc23)[C@H](O)C1 [Alvocidib] (100 nM),100%
3,OC[C@H]1O[C@@H](n2cnc3c2N=CNC[C@H]3O)C[C@@H]1O [Pentostatin] (100 nM),97.8%
4,Nc1nc(Cl)nc2c1ncn2[C@H]1C[C@H](O)[C@@H](CO)O1 [Cladribine] (10 nM),99.5%
5,COc1cccc2c1C(=O)c1c(O)c3c(c(O)c1C2=O)C[C@@](O)(C(=O)CO)C[C@@H]3O[C@H]1C[C@H](N)[C@H](O)[C@H](C)O1 [Doxorubicin] (10 nM),111%
6,CC(=O)O[C@]1(C(C)=O)CC[C@H]2[C@@H]3C=C(C)C4=CC(=O)CC[C@]4(C)[C@H]3CC[C@@]21C [Megestrol acetate] (100 nM),97.4%
7,CN(C)C/C=C/C(=O)Nc1cc2c(Nc3ccc(F)c(Cl)c3)ncnc2cc1O[C@H]1CCOC1 [Afatinib] (10 nM),97.9%
8,COc1cccc2cc(-c3nc([C@H]4CC[C@H](C(=O)O)CC4)n4ncnc(N)c34)[nH]c12 [OSI-027] (100 nM),100%
9,N#CC[C@H](C1CCCC1)n1cc(-c2ncnc3[nH]ccc23)cn1 [Ruxolitinib] (100 nM),87.1%

# Test system: CAL-51
# Assay: as above
# Conditions: incubation time: 72 h
# Description: as §1
row,SMILES,normalised response
1,O=C(c1ccc(C(=O)N2CCC(N3CCCC3)CC2)c(Nc2ccccc2)c1)N1CCC(N2CCCC2)CC1 [UNC1215] (300 nM),62.6%
2,CN1CC[C@H](c2c(O)cc(O)c3c(=O)cc(-c4ccccc4Cl)oc23)[C@H](O)C1 [Alvocidib] (100 nM),81.3%
3,OC[C@H]1O[C@@H](n2cnc3c2N=CNC[C@H]3O)C[C@@H]1O [Pentostatin] (100 nM),86.6%
